US20250066370A1, “BICYCLIC TRIAZINE DERIVATIVES FOR THE TREATMENT OF CANCER” (DEUTSCHES KREBSFORSCHUNGSZENTRUM, priority 2022, published 2025)

Legend:
[1] = system: MDA-MB-231, human breast cancer cells; test: Proliferation assay MDA-MB-231 (crystal violet); assay type: cell-based; conditions: 96 h, MDA-MB-231 parental cells, 4 days, median, read-out: Prolif-MDA MB-231, IC50 - [mol/l] (median)
Procedure: Human tumour cells were originally obtained from the American Type Culture Collection (ATCC), or from the Deutsche Sammlung von Mikroorganismen und Zellkulturen (DSMZ, German Collection of Microorganisms and Cell Cultures). Cultivated tumour cells (CAL-120, human breast adenocarcinoma cells, DSMZ ACC-459; MDA-MB-231, human breast cancer cells, ATCC HTB-26) were plated at a density of 4,000 cells/well in a 96-well multitier plate in 200 microL of their respective growth medium supplemented 10% fetal calf serum. After 24 hours, the cells of one plate (zero-point plate) were stained with crystal violet (see below), while the medium of the other plates was supplemented with the test substances in various concentrations (0 micromol/L, as well as in the range of 0.01-10 micromol/L; the final concentration of the solvent dimethyl sulfoxide was adjusted to 0.1%) using a Tecan HP D300 Digital Dispenser. The cells were incubated for 4 days in the presence of test substances. Cell proliferation was determined by staining the cells with crystal violet: the cells were fixed by adding 20 microL/measuring point of an 11% glutaric aldehyde solution for 15 minutes at room temperature. After three washing cycles of the fixed cells with water, the plates were dried at room temperature. The cells were stained by adding 100 microL/measuring point of a 0.1% crystal violet solution (pH 3.0). After three washing cycles of the stained cells with water, the plates were dried at room temperature. The dye was dissolved by adding 100 microL/measuring point of a 10% acetic acid solution. The extinction was determined by photometry at a wavelength of 595 nm. The change of cell number, in percent, was calculated by normalization of the measured values to the extinction values of the zero-point plate (=0%) and the extinction of the untreated (0 μM) cells (=100%). The IC50 values (inhibitory concentration at 50% of maximal effect) were determined by means of a 4 parameter fit.

CDK9/CyclinT1 = CDK9/CyclinT1 (Homo sapiens (Human), UniProt P50750); test: CDK9/CycT1 high ATP kinase assay (TR-FRET); assay type: biochemical; conditions: 2 mM ATP (high ATP); median; read-out: CDK9/CyclinT1, 2 mM ATP (high ATP), IC50 - [mol/l] (median)
Procedure: CDK9/CycT1-inhibitory activity of compounds of the present invention at a high ATP concentration after preincubation of enzyme and test compounds was quantified employing the CDK9/CycT1 TR-FRET assay as described in the following paragraphs.
Recombinant full-length His-tagged human CDK9 and CycT1, expressed in insect cells and purified by Ni-NTA affinity chromatography, were purchased from Life Technologies (Cat. No PV4131). As substrate for the kinase reaction biotinylated peptide biotin-Ttds-YISPLKSPYKISEG (C-terminus in amide form) was used which can be purchased e.g. form the company JERINI peptide technologies (Berlin, Germany).
For the assay 50 nanoL of a 100 fold concentrated solution of the test compound in DMSO was pipetted into either a black low volume 384 well microtiter plate or a black 1536 well microtiter plate (both Greiner Bio-One, Frickenhausen, Germany), 2 microL of a solution of CDK9/CycT1 in aqueous assay buffer [50 millimol/L Tris/HCl PH 8.0, 10 millimol/L MgCl2, 1.0 millimol/L dithiothreitol, 0.1 millimol/L sodium ortho-vanadate, 0.01% (v/v) Nonidet-P40 (Sigma)] were added and the mixture was incubated for 15 min at 22° C. to allow pre-binding of the test compounds to the enzyme before the start of the kinase reaction. Then the kinase reaction was started by the addition of 3 microL of a solution of adenosine-tri-phosphate (ATP, 3.3 millimol/L=>final conc. in the 5 microL assay volume is 2 millimol/L) and substrate (1.25 micromol/L=>final conc. in the 5 microL assay volume is 0.75 micromol/L) in assay buffer and the resulting mixture was incubated for a reaction time of 25 min at 22° C. The concentration of CDK9/CycT1 was adjusted depending of the activity of the enzyme lot and was chosen appropriate to have the assay in the linear range, typical concentrations were in the range of 0.5 microg/ml. The reaction was stopped by the addition of 3 microL of a solution of TR-FRET detection reagents (0.33 micromol/L streptavidine-XL665 [Cisbio Bioassays, Codolet, France] and 1.67 nanomol/L anti-RB (pSer807/pSer811)-antibody from BD Pharmingen [#558389] and 2 nanomol/L LANCE EU-W1024 labeled anti-mouse IgG antibody [Perkin-Elmer, product no. AD0077]) in an aqueous EDTA-solution (167 millimol/L EDTA, 0.2% (w/v) bovine serum albumin in 100 millimol/L HEPES pH 7.5).
The resulting mixture was incubated 1 h at 22° C. to allow the formation of complex between the phosphorylated biotinylated peptide and the detection reagents. Subsequently the amount of phosphorylated substrate was evaluated by measurement of the resonance energy transfer from the Eu-chelate to the streptavidine-XL. Therefore, the fluorescence emissions at 620 nm and 665 nm after excitation at 350 nm was measured in a TR-FRET reader, e.g. a Pherastar (BMG Labtechnologies, Offenburg, Germany) or a Viewlux (Perkin-Elmer). The ratio of the emissions at 665 nm and at […] was taken as the measure for the amount of phosphorylated substrate. The data were normalised (enzyme reaction without inhibitor=0% inhibition, all other assay components but no enzyme=100% inhibition).

Sequence of CDK9/CyclinT1 (P50750 whole entry): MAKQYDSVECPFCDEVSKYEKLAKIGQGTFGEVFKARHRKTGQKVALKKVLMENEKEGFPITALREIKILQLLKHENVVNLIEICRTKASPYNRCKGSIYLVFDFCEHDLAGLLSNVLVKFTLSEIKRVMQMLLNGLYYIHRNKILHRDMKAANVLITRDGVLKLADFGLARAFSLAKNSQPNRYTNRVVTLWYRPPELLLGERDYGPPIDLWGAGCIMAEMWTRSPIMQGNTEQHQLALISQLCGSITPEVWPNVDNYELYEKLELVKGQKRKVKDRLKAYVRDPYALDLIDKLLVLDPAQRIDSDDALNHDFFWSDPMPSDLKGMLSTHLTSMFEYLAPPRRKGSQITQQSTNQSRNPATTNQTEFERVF
Sequence of CDK9/CyclinT1 (O60563 whole entry partner): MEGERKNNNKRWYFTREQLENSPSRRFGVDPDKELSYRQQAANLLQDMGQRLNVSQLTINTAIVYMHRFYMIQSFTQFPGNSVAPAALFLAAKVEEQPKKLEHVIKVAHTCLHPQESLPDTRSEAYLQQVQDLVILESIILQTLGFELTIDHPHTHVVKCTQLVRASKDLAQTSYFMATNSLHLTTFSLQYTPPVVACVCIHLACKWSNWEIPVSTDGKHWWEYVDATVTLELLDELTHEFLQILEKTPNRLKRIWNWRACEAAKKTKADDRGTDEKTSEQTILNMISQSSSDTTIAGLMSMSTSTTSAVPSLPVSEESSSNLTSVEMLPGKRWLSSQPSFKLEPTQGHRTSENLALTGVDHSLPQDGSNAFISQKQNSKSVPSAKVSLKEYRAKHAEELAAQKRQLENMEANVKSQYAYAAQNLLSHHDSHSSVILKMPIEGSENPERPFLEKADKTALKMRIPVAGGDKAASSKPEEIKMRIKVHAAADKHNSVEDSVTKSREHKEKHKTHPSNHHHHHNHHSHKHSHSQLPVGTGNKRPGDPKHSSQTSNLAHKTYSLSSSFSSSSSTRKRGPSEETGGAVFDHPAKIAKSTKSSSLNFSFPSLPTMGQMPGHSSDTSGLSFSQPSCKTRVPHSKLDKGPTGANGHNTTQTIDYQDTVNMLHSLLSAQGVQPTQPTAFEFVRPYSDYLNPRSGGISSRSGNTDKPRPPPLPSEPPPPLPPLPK

Compound | IC50 (CDK9/CyclinT1) [nM] | IC50 [1] [nM]
COc1ccc(-c2nnc(CNc3nc(N4CCOCC4)nc4c(C(F)(F)F)cnn34)[nH]2)cn1 [Example 15, N-{[5-(6-methoxypyridin-3-yl)-4H-1,2,4-triazol-3-yl]methyl}-2-(morpholin-4-yl)-8-(trifluoromethyl)pyrazolo[1,5-a][1,3,5]triazin-4-amine] | – | 259
FC(F)(F)c1ccc(-c2cnc(CNc3nc(N4CCOCC4)nn4c(C(F)(F)F)cnc34)[nH]2)cn1 [Example 12, 2-(morpholin-4-yl)-7-(trifluoromethyl)-N-({5-[6-(trifluoromethyl)pyridin-3-yl]-1H-imidazol-2-yl}methyl)imidazo[2,1-f][1,2,4]triazin-4-amine] | > 20000 | 22.5
FC(F)(F)c1ccc(-c2nnc(CNc3nc(N4CCOCC4)nn4c(C(F)(F)F)cnc34)[nH]2)cc1 [Example 11, 2-(morpholin-4-yl)-7-(trifluoromethyl)-N-({5-[4-(trifluoromethyl)phenyl]-4H-1,2,4-triazol-3-yl}methyl)imidazo[2,1-f][1,2,4]triazin-4-amine] | > 20000 | 434
COc1ccc(-c2nnc(CNc3nc(N4CCOCC4)nn4c(C(F)(F)F)cnc34)[nH]2)cn1 [Example 18, N-{[5-(6-methoxypyridin-3-yl)-4H-1,2,4-triazol-3-yl]methyl}-2-(morpholin-4-yl)-7-(trifluoromethyl)imidazo[2,1-f][1,2,4]triazin-4-amine] | – | 72.1
FC(F)(F)Oc1ccc(-c2cnc(CNc3nc(N4CCOCC4)nc4c(Br)cnn34)[nH]2)cc1 [Example 4, 8-bromo-2-(morpholin-4-yl)-N-({5-[4-(trifluoromethoxy)phenyl]-1H-imidazol-2-yl}methyl)pyrazolo[1,5-a][1,3,5]triazin-4-amine] | > 20000 | 123
FC(F)(F)Oc1ccc(-c2nnc(CNc3nc(N4CCOCC4)nn4c(C(F)(F)F)cnc34)[nH]2)cc1 [Example 14, 2-(morpholin-4-yl)-N-({5-[4-(trifluoromethoxy)phenyl]-4H-1,2,4-triazol-3-yl}methyl)-7-(trifluoromethyl)imidazo[2,1-f][1,2,4]triazin-4-amine] | > 20000 | 319
FC(F)(F)c1ccc(-c2nnc(CNc3nc(N4CCOCC4)nc4c(C(F)(F)F)cnn34)[nH]2)cc1 [Example 6, 2-(morpholin-4-yl)-8-(trifluoromethyl)-N-({5-[4-(trifluoromethyl)phenyl]-4H-1,2,4-triazol-3-yl}methyl)pyrazolo[1,5-a][1,3,5]triazin-4-amine] | > 20000 | 777
FC(F)(F)c1ccc(-c2cnc(CNc3nc(N4CCOCC4)nc4c(C(F)(F)F)cnn34)[nH]2)cn1 [Example 24, 2-(morpholin-4-yl)-8-(trifluoromethyl)-N-({5-[6-(trifluoromethyl)pyridin-3-yl]-1H-imidazol-2-yl}methyl)pyrazolo[1,5-a][1,3,5]triazin-4-amine] | – | 21.7

Further lines, with some results ahead:

IC50 (CDK9/CyclinT1) [nM] | Compound | IC50 [1] [nM]
> 20000 | FC(F)(F)Oc1ccc(-c2cnc(CNc3nc(N4CCOCC4)nn4c(C(F)(F)F)cnc34)[nH]2)cc1 [Example 8, 2-(morpholin-4-yl)-N-({5-[4-(trifluoromethoxy)phenyl]-1H-imidazol-2-yl}methyl)-7-(trifluoromethyl)imidazo[2,1-f][1,2,4]triazin-4-amine] | 114
> 20000 | FC(F)(F)c1ccc(-c2cnc(CNc3nc(N4CCOCC4)nn4c(C(F)(F)F)cnc34)[nH]2)cc1 [Example 7, 2-(morpholin-4-yl)-7-(trifluoromethyl)-N-({5-[4-(trifluoromethyl)phenyl]-1H-imidazol-2-yl}methyl)imidazo[2,1-f][1,2,4]triazin-4-amine] | 90.5
> 19100 | FC(F)(F)c1ccc(-c2cnc(CNc3nc(N4CCOCC4)nc4c(C(F)(F)F)cnn34)[nH]2)cc1 [Example 9, 2-(morpholin-4-yl)-8-(trifluoromethyl)-N-({5-[4-(trifluoromethyl)phenyl]-1H-imidazol-2-yl}methyl)pyrazolo[1,5-a][1,3,5]triazin-4-amine] | 190
17800 | FC(F)(F)Oc1ccc(-c2nnc(CNc3nc(N4CCOCC4)nc4c(C(F)(F)F)cnn34)[nH]2)cc1 [Example 5, 2-(morpholin-4-yl)-N-({5-[4-(trifluoromethoxy)phenyl]-4H-1,2,4-triazol-3-yl}methyl)-8-(trifluoromethyl)pyrazolo[1,5-a][1,3,5]triazin-4-amine] | 319
4580 | FC(F)(F)c1ccc(-c2nnc(CNc3nc(N4CCOCC4)nc4c(Br)cnn34)[nH]2)cc1 [Example 1, 8-bromo-2-(morpholin-4-yl)-N-({5-[4-(trifluoromethyl)phenyl]-4H-1,2,4-triazol-3-yl}methyl)pyrazolo[1,5-a][1,3,5]triazin-4-amine] | –
> 20000 | FC(F)(F)Oc1ccc(-c2cnc(CNc3nc(N4CCOCC4)nc4c(C(F)(F)F)cnn34)[nH]2)cc1 [Example 10, 2-(morpholin-4-yl)-N-({5-[4-(trifluoromethoxy)phenyl]-1H-imidazol-2-yl}methyl)-8-(trifluoromethyl)pyrazolo[1,5-a][1,3,5]triazin-4-amine] | 123
3050 | COc1ccc(-c2cnc(CNc3nc(N4CCOCC4)nc4c(C(F)(F)F)cnn34)[nH]2)cn1 [Example 21, N-{[5-(6-methoxypyridin-3-yl)-1H-imidazol-2-yl]methyl}-2-(morpholin-4-yl)-8-(trifluoromethyl)pyrazolo[1,5-a][1,3,5]triazin-4-amine] | 98.3
624 | Cc1ccc(-c2nnc(CNc3nc(N4CCOCC4)nn4c(C(F)(F)F)cnc34)[nH]2)cn1 [Example 23, N-{[5-(6-methylpyridin-3-yl)-4H-1,2,4-triazol-3-yl]methyl}-2-(morpholin-4-yl)-7-(trifluoromethyl)imidazo[2,1-f][1,2,4]triazin-4-amine] | 75.8
15400 | FC(F)(F)c1ccc(-c2cnc(CNc3nc(N4CCOCC4)nc4c(Br)cnn34)[nH]2)cc1 [Example 3, 8-bromo-2-(morpholin-4-yl)-N-({5-[4-(trifluoromethyl)phenyl]-1H-imidazol-2-yl}methyl)pyrazolo[1,5-a][1,3,5]triazin-4-amine] | –
6350 | FC(F)(F)Oc1ccc(-c2nnc(CNc3nc(N4CCOCC4)nc4c(Br)cnn34)[nH]2)cc1 [Example 2, 8-bromo-2-(morpholin-4-yl)-N-({5-[4-(trifluoromethoxy)phenyl]-4H-1,2,4-triazol-3-yl}methyl)pyrazolo[1,5-a][1,3,5]triazin-4-amine] | –
